Test results reported in patent US8772283B2, “Imidazo-oxazine compound or salt thereof” (Taiho Pharmaceutical Co., Ltd., priority 2011, dated 2014).
Counter-ions that a name gives are not always drawn.

What was measured:
[1] = target: human AKT1 (Homo sapiens (Human), UniProt P31749); assay: AKT1 kinase activity inhibition (TR-FRET, biotinylated Crosstide substrate); type: biochemical; details: preincubation 120 min at 25° C.; ATP 150 μM; Crosstide 500 nM
Description: (§1) Preparation of AKT1 and AKT2 and measurement of in vitro inhibitory activity of the above-mentioned compounds against AKT1 and AKT2 kinase activity were carried out with reference to the method disclosed in Biochem. J. Vol. 385, pp 399-408 (2005). In the preparation of AKT1 and AKT2, human AKT1 and AKT2 to which a middle T antigen tag was added were expressed in Sf 9 insect cells, and then AKT1 and AKT2 were prepared following affinity purification and activation by PDK1. The prepared AKT1 and AKT2 were stored at −80° C. until the time of measurement of inhibitory activity of the compounds. In the measurement of inhibitory activity of the compounds, AKT1 or AKT2 and each compound of the present invention were preincubated at 25° C. for 120 minutes in a buffer solution for reaction (15 mM Tris-HCl pH 7.5, 0.01% Tween-20, 2 mM DTT). As a substrate, biotinylated Crosstide (bioton-KGSGSGRPRTSSFAEG), MgCl2, and ATP were added to final concentrations of 500 nM, 10 mM, and 150 μM, respectively, and reactions were carried out at 25° C. for 60 minutes. The reactions were stopped by adding EDTA to a final concentration of 80 mM. Then, a detection liquid in which an Eu-labeled anti-phosphorylation Crosstide antibody (PerkinElmer) and SureLight APC-SA (PerkinElmer) were contained at a final concentration of 0.5 nM and […], respectively, was added, and reactions were carried out at room temperature for 2 hours. Finally, the amount of fluorescence at the time of irradiation of excitation light having a wavelength of 337 nm was measured at dual wavelengths of 620 nm and 665 nm by PHERAstar FS (BMG LABTECH). The amount of phosphorylation was determined from the ratio of the fluorescence amounts at the dual wavelengths. The compound concentration at which phosphorylation can be inhibited by 50% was defined as […] (nM), and the results are shown in Table 4 below.

[2] = target: human AKT2 (Homo sapiens (Human), UniProt P31751); assay: AKT2 kinase activity inhibition (TR-FRET, biotinylated Crosstide substrate); type: biochemical; details: preincubation 120 min at 25° C.; ATP 150 μM; Crosstide 500 nM
human AKT2, sequence (P31751 whole entry): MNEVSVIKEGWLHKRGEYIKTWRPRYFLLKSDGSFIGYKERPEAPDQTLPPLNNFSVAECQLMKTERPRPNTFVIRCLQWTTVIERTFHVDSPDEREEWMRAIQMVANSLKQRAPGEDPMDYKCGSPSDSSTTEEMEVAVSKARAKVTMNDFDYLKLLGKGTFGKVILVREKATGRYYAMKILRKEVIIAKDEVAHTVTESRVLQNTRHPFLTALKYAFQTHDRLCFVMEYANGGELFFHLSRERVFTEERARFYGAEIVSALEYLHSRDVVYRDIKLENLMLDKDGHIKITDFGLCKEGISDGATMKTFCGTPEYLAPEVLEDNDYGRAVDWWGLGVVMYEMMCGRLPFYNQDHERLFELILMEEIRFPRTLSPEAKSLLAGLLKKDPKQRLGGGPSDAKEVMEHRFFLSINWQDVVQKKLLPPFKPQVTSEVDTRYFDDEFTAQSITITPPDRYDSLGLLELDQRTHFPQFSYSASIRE
Description: as §1

[3] = system: AKT Ser473 phosphorylation; assay: Phosphorylated AKT (Ser473) inhibitory activity in cultured cell A2780 (Meso Scale Discovery assay); type: cell-based; details: A2780 cells, 3 hours treatment; average±standard deviation of three independent runs
Description: (§2) To evaluate the inhibitory activity of the above compounds against AKT activity, AKT Ser 473 phosphorylation and phosphorylation of S6 ribosomal protein (S6RP) (a downstream factor of Akt signal) at Ser240/Ser244, which serve as indices for the activation status of AKT, were measured in extracts of cultured cells which had been treated with the above compounds. For the measurement, assays (manufactured by Meso Scale Discovery) utilizing electrochemiluminescence based on the ELISA principle were used for both AKT Ser473 and S6RP Ser240/Ser244.
(§3) In 10% FBS-containing RPMI1640 medium (Invitrogen), ovarian cancer-derived A2780 cells in the logarithmic growth phase were seeded at 4.5×10^4 cells/150 μL/well into polylysine coated 96-well flat-bottom plates, and cultured for one day in an incubator at 5% CO2, 37° C., and 100% humidity.
(§4) Each compound of the present invention was supplied as a stock solution prepared at a concentration of 10 mM in DMSO. Using this solution, a dilution series was prepared in DMSO solvent at 200-fold of the final concentrations (10, 3, 1, 0.3, 0.1, 0.03, 0.01, 0.003 μM). The day after the cells were seeded, the compound dilution series at a 200-fold concentration was diluted 50-fold in medium for cell culture. To each well of the aforementioned A2780 cell culture plates, 50 μL of the diluted compound dilution series was added. The plates were then placed back in the incubator, and the culture was continued for 3 hours at 5% CO2, 37° C., and 100% humidity.
(§5) Meso Scale Discovery's 96-Well Multi-Spot Phospho-AKT (Ser473) Assay (K151CAA-3) and Phospho (Ser240/244)/Total S6RP Assay (K11139D-2) were used. In advance, a necessary amount of the supplied cell extract buffer was dispensed, and protease inhibitor cocktail and protein phosphatase inhibitor cocktail were added thereto, and kept cold on ice. The culture plates of the cells cultured with the compounds for 3 hours were taken out and the medium was removed. 100 μL of the cell extract buffer kept cold was added per well, followed by extraction by shaking at 300 r.p.m. for 1 hour using a plate shaker while maintaining a temperature of 4° C. Using the obtained extracts at 40 μL/well for the Phospho-AKT (Ser473) Assay and at 15 μL/well for the Phospho(Ser240/244)/Total S6RP Assay, reactions were conducted at 4° C. overnight with shaking at 300 r.p.m. according to the document attached to the kits. The next day, after the wells were washed three times with the supplied wash buffer, 50 μL/well of SULFO-TAG™ sandwich antibody solution was added, and reactions were carried out at room temperature for 1 hour. The wells were washed with the wash buffer three times, and 150 μL of the supplied Read Buffer T was added to each well. The amounts of phosphorylation of AKT and S6RP were measured by a SECTOR Imager 6000 plate reader (manufactured by Meso Scale Discovery) within 30 minutes of the Read Buffer T addition.
(§6) The extraction buffer-only background was subtracted from all of the measurement values, and AKT and S6RP phosphorylation signals in the control cell extract treated with only DMSO were defined as 100%. The compound concentrations and the levels of phosphorylated AKT and S6PR (expressed as a percentage relative to the control) in each concentration were plotted, and IC50 concentration (nM) that achieves 50% inhibition of the control was determined.

[4] = system: S6 ribosomal protein (S6RP) Ser240/Ser244 phosphorylation; assay: Phosphorylated S6RP (Ser240/Ser244) inhibitory activity in cultured cell A2780 (Meso Scale Discovery assay); type: cell-based; details: A2780 cells, 3 hours treatment; average±standard deviation of three independent runs
Description: as §2, §3, §4, §5, §6

human AKT1, sequence (P31749 whole entry): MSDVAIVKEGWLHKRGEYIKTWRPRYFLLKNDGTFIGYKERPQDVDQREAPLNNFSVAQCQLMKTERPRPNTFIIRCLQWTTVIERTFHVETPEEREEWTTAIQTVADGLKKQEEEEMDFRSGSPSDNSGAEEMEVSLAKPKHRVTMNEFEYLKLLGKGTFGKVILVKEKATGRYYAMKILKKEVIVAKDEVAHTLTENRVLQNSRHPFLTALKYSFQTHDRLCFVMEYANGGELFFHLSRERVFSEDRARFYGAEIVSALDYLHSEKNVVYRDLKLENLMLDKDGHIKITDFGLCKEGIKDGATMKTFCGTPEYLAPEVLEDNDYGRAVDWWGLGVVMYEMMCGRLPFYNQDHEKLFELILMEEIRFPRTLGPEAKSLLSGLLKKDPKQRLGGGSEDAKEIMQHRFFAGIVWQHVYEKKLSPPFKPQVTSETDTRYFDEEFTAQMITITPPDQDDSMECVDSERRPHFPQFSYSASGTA

Compound | IC50 [1] [nM] | IC50 [2] [nM] | IC50 [3] [nM] | IC50 [4] [nM]
N[C@]1(c2ccc(-c3nc4n(c3-c3ccccc3)COc3cccc(F)c3-4)cc2)C[C@](O)(C2CC2)C1 [Example 1, trans-3-amino-1-cyclopropyl-3-(4-(10-fluoro-3-phenyl-5H-benzo[e]imidazo[1,2-c][1,3]oxazin-2-yl)phenyl)cyclobutanol] | 3.7 | 0.29 | 24 ± 1 | 40 ± 13
CC1(O)CC(N)(c2ccc(-c3nc4n(c3-c3ccccc3)COc3cc(CO)ccc3-4)cc2)C1 (stereo not drawn) [Example 45, trans-3-amino-3-(4-(8-(hydroxymethyl)-3-phenyl-5H-benzo[e]imidazo[1,2-c][1,3]oxazin-2-yl)phenyl)-1-methylcyclobutanol] | 8.6 | 2.7 | – | –
CC1(O)CC(N)(c2ccc(-c3nc4n(c3-c3ccccc3)COc3cc(C#N)ccc3-4)cc2)C1 (stereo not drawn) [Example 47, 2-(4-(trans-1-amino-3-hydroxy-3-methylcyclobutyl)phenyl)-3-phenyl-5H-benzo[e]imidazo[1,2-c][1,3]oxazine-8-carbonitrile] | 6.2 | 1.2 | – | –
CC1(O)CC(N)(c2ccc(-c3nc4n(c3-c3ccccc3)COc3ccc(-c5cn[nH]c5)cc3-4)cc2)C1 (stereo not drawn) [Example 49, trans-3-amino-1-methyl-3-(4-(3-phenyl-9-(1H-pyrazol-4-yl)-5H-benzo[e]imidazo[1,2-c][1,3]oxazin-2-yl)phenyl)cyclobutanol] | 1.3 | 0.42 | – | –
Cc1ccc2c(n1)-c1nc(-c3ccc(C4(N)CC(C)(O)C4)cc3)c(-c3ccccc3)n1CO2 (stereo not drawn) [Example 50, trans-3-amino-1-methyl-3-(4-(9-methyl-3-phenyl-5H-imidazo[1,2-c]pyrido[2,3-e][1,3]oxazin-2-yl)phenyl)cyclobutanol] | 11 | 0.85 | – | –
COc1ccc2c(n1)-c1nc(-c3ccc(C4(N)CC(C)(O)C4)cc3)c(-c3ccccc3)n1CO2 (stereo not drawn) [Example 51, trans-3-amino-3-(4-(9-methoxy-3-phenyl-5H-imidazo[1,2-c]pyrido[2,3-e][1,3]oxazin-2-yl)phenyl)-1-methylcyclobutanol] | 5.5 | 1.1 | – | –
CNC(=O)c1ccc2c(c1)-c1nc(-c3ccc([C@]4(N)C[C@](C)(O)C4)cc3)c(-c3ccccc3)n1CO2 [Example 52, 2-(4-(trans-1-amino-3-hydroxy-3-methylcyclobutyl)phenyl)-N-methyl-3-phenyl-5H-benzo[e]imidazo[1,2-c][1,3]oxazine-9-carboxamide] | 1.5 | 0.28 | – | –
CC1(O)CC(N)(c2ccc(-c3nc4n(c3-c3ccccc3)COc3ccc(C(N)=O)cc3-4)cc2)C1 (stereo not drawn) [Example 53, 2-(4-(trans-1-amino-3-hydroxy-3-methylcyclobutyl)phenyl)-3-phenyl-5H-benzo[e]imidazo[1,2-c][1,3]oxazine-9-carboxamide] | 1.6 | 0.26 | – | –
CC1(O)CC(N)(c2ccc(-c3nc4n(c3-c3ccccc3)COc3ccc(C(=O)NCCO)cc3-4)cc2)C1 (stereo not drawn) [Example 60, 2-(4-(trans-1-amino-3-hydroxy-3-methylcyclobutyl)phenyl)-N-(2-hydroxyethyl)-3-phenyl-5H-benzo[e]imidazo[1,2-c][1,3]oxazine-9-carboxamide] | 2.4 | 0.57 | – | –
CCONC(=O)c1ccc2c(c1)-c1nc(-c3ccc([C@]4(N)C[C@](C)(O)C4)cc3)c(-c3ccccc3)n1CO2 [Example 61, 2-(4-(trans-1-amino-3-hydroxy-3-methylcyclobutyl)phenyl)-N-ethoxy-3-phenyl-5H-benzo[e]imidazo[1,2-c][1,3]oxazine-9-carboxamide] | 1.8 | 0.4 | – | –

More lines, main results first:

IC50 [1] [nM] | IC50 [2] [nM] | Compound | IC50 [3] [nM] | IC50 [4] [nM]
4.4 | 1.3 | CN(C)C(=O)c1ccc2c(c1)-c1nc(-c3ccc(C4(N)CC(C)(O)C4)cc3)c(-c3ccccc3)n1CO2 (stereo not drawn) [Example 54, 2-(4-(trans-1-amino-3-hydroxy-3-methylcyclobutyl)phenyl)-N,N-dimethyl-3-phenyl-5H-benzo[e]imidazo[1,2-c][1,3]oxazine-9-carboxamide] | – | –
1.8 | 0.31 | CCNC(=O)c1ccc2c(c1)-c1nc(-c3ccc(C4(N)CC(C)(O)C4)cc3)c(-c3ccccc3)n1CO2 (stereo not drawn) [Example 55, 2-(4-(trans-1-amino-3-hydroxy-3-methylcyclobutyl)phenyl)-N-ethyl-3-phenyl-5H-benzo[e]imidazo[1,2-c][1,3]oxazine-9-carboxamide] | – | –
15 | 3.5 | CN(C)C(=O)c1ccc2c(c1)OCn1c-2nc(-c2ccc(C3(N)CC(C)(O)C3)cc2)c1-c1ccccc1 (stereo not drawn) [Example 57, 2-(4-(trans-1-amino-3-hydroxy-3-methylcyclobutyl)phenyl)-N,N-dimethyl-3-phenyl-5H-benzo[e]imidazo[1,2-c][1,3]oxazine-8-carboxamide] | – | –
3.1 | 0.7 | CC1(O)CC(N)(c2ccc(-c3nc4n(c3-c3ccccc3)COc3cc(C(=O)NCCO)ccc3-4)cc2)C1 (stereo not drawn) [Example 58, 2-(4-(trans-1-amino-3-hydroxy-3-methylcyclobutyl)phenyl)-N-(2-hydroxyethyl)-3-phenyl-5H-benzo[e]imidazo[1,2-c][1,3]oxazine-8-carboxamide] | – | –
1.3 | 0.4 | CC1(O)CC(N)(c2ccc(-c3nc4n(c3-c3ccccc3)COc3cc(C(N)=O)ccc3-4)cc2)C1 (stereo not drawn) [Example 62, 2-(4-(trans-1-amino-3-hydroxy-3-methylcyclobutyl)phenyl)-3-phenyl-5H-benzo[e]imidazo[1,2-c][1,3]oxazine-8-carboxamide] | – | –
5 | 0.91 | CC1(O)CC(N)(c2ccc(-c3nc4n(c3-c3ccccc3)COc3ccc(C(=O)O)cc3-4)cc2)C1 (stereo not drawn) [Example 63, 2-(4-(trans-1-amino-3-hydroxy-3-methylcyclobutyl)phenyl)-3-phenyl-5H-benzo[e]imidazo[1,2-c][1,3]oxazine-9-carboxylic acid hydrochloride] | – | –
3.1 | 0.94 | CC1(O)CC(N)(c2ccc(-c3nc4n(c3-c3ccccc3)COc3cc(C(=O)O)ccc3-4)cc2)C1 (stereo not drawn) [Example 64, 2-(4-(trans-1-amino-3-hydroxy-3-methylcyclobutyl)phenyl)-3-phenyl-5H-benzo[e]imidazo[1,2-c][1,3]oxazine-8-carboxylic acid hydrochloride] | – | –
6.4 | 4 | trans-3-amino-1-methyl-3-(4-(3-phenyl-5H-imidazo[1,2-c]pyrazino[2,3-e][1,3]oxazin-2-yl)phenyl)cyclobutanol [Example 42] | – | –
